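Five compound concentrations were applied to cells in 96-well plates for 48 hours; endpoints were derived by simple linear interpolation of the resulting dose-response curve. Abbreviation: GI50, concentration required for 50% inhibition of growth.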 Active and inactive are the calls of the source. Rule as the data show it: active = GI50 up to about 1.1 µM and inactive = higher.
Tests used:
Experiment in all cases: DTP human tumour cell line panel, 48 h
ACHN = tested on: ACHN
CCRF-CEM = tested on: CCRF-CEM
COLO 205 = tested on: COLO 205
EKVX = tested on: EKVX
HCT-116 = tested on: HCT-116
K562 = tested on: K562
LOX IMVI = tested on: LOX IMVI
MDA-MB-231 = tested on: MDA-MB-231
MDA-N = tested on: MDA-N
Malme-3M = tested on: Malme-3M
NCI-H226 = tested on: NCI-H226
NCI/ADR-RES = tested on: NCI/ADR-RES
OVCAR-5 = tested on: OVCAR-5
OVCAR-8 = tested on: OVCAR-8
SK-MEL-5 = tested on: SK-MEL-5
SK-OV-3 = tested on: SK-OV-3
SN12C = tested on: SN12C
TK-10 = tested on: TK-10
UACC-257 = tested on: UACC-257
UO-31 = tested on: UO-31

| SMILES | GI50 (ACHN) | GI50 (CCRF-CEM) | GI50 (COLO 205) | GI50 (EKVX) | GI50 (HCT-116) | GI50 (K562) | GI50 (LOX IMVI) | GI50 (MDA-MB-231) | GI50 (MDA-N) | GI50 (Malme-3M) | GI50 (NCI-H226) | GI50 (NCI/ADR-RES) | GI50 (OVCAR-5) | GI50 (OVCAR-8) | GI50 (SK-MEL-5) | GI50 (SK-OV-3) | GI50 (SN12C) | GI50 (TK-10) | GI50 (UACC-257) | GI50 (UO-31) |
| --- | --- | --- | --- | --- | --- | --- | --- | --- | --- | --- | --- | --- | --- | --- | --- | --- | --- | --- | --- | --- |
| Cc1ccc([N+](=O)[O-])cc1S(=O)(=O)Nc1ccc(C2=NN(C(=O)c3ccccc3)C(c3ccccc3)C2)cc1 (stereo not given) | 19 µM (inactive) | 24.9 µM (inactive) | 16.9 µM (inactive) | 16.3 µM (inactive) | 18.1 µM (inactive) | 18 µM (inactive) | 30.5 µM (inactive) | 15.5 µM (inactive) | 21.2 µM (inactive) | 18.2 µM (inactive) | 15.5 µM (inactive) | 30.4 µM (inactive) | 41.3 µM (inactive) | 18.9 µM (inactive) | 12.9 µM (inactive) | 16 µM (inactive) | 21.8 µM (inactive) | 18 µM (inactive) | 20.6 µM (inactive) | 22.4 µM (inactive) |
| CC(=O)[C@@]1(O)CC[C@H]2[C@@H]3C[C@H](C)C4=CC(=O)C=C[C@]4(C)[C@@]3(F)[C@@H](O)C[C@@]21C [FLUOROMETHOLONE] | > 100 µM (inactive) | 1.8 µM (inactive) | > 100 µM (inactive) | > 67.5 µM (inactive) | > 100 µM (inactive) | > 100 µM (inactive) | > 100 µM (inactive) | > 91 µM (inactive) | > 100 µM (inactive) | > 100 µM (inactive) | > 11.3 µM (inactive) | > 100 µM (inactive) | > 38.5 µM (inactive) | > 69.7 µM (inactive) | > 100 µM (inactive) | > 100 µM (inactive) | > 100 µM (inactive) | > 100 µM (inactive) | > 100 µM (inactive) | > 100 µM (inactive) |
| OCC1c2ccccc2-n2nc(-c3ccccc3)c(O)c21 (stereo not given) | 16.8 µM (inactive) | 28.6 µM (inactive) | 13.5 µM (inactive) | 29.2 µM (inactive) | > 10 µM (inactive) | 21.4 µM (inactive) | 20.7 µM (inactive) | 29.2 µM (inactive) | 46.1 µM (inactive) | 17.1 µM (inactive) | 79.4 µM (inactive) | 18.6 µM (inactive) | > 100 µM (inactive) | 18.5 µM (inactive) | 33.3 µM (inactive) | 39.4 µM (inactive) | 17.6 µM (inactive) | 19.9 µM (inactive) | 47 µM (inactive) | 22.8 µM (inactive) |
| C=CCC1CC(n2cc(C)c(=O)[nH]c2=O)OC1CO[Si](C)(C)C(C)(C)C (stereo not given) | 15.4 µM (inactive) | 12.1 µM (inactive) | 13.5 µM (inactive) | 7.52 µM (inactive) | 11.7 µM (inactive) | 0.163 µM (active) | 13 µM (inactive) | 13.7 µM (inactive) | 14 µM (inactive) | 10.5 µM (inactive) | 13.2 µM (inactive) | 15.1 µM (inactive) | 17.3 µM (inactive) | 15.1 µM (inactive) | 15.4 µM (inactive) | 14 µM (inactive) | 15 µM (inactive) | 15.8 µM (inactive) | 17.2 µM (inactive) | 11.4 µM (inactive) |
| C(/C=N/N=C1NCCCCN1)=N\N=C1NCCCCN1 | > 100 µM (inactive) | > 100 µM (inactive) | > 100 µM (inactive) | > 100 µM (inactive) | > 100 µM (inactive) | > 100 µM (inactive) | > 100 µM (inactive) | > 100 µM (inactive) | > 100 µM (inactive) | > 100 µM (inactive) | > 100 µM (inactive) | > 100 µM (inactive) | > 100 µM (inactive) | > 100 µM (inactive) | > 100 µM (inactive) | > 100 µM (inactive) | > 100 µM (inactive) | > 100 µM (inactive) | > 100 µM (inactive) | > 100 µM (inactive) |
| C=C(C)C(=O)OC1C[C@H](COC(C)=O)C2CC=C(C)C2C2OC(=O)C(=C)[C@H]12 (stereo not given in full) | 3.69 µM (inactive) | 1.64 µM (inactive) | 2.54 µM (inactive) | 9.82 µM (inactive) | 1.67 µM (inactive) | 1.87 µM (inactive) | 1.85 µM (inactive) | 4.3 µM (inactive) | 3.66 µM (inactive) | 1.55 µM (inactive) | 17.3 µM (inactive) | 2.18 µM (inactive) | 9.77 µM (inactive) | 5.31 µM (inactive) | 7.5 µM (inactive) | 17.2 µM (inactive) | 4.97 µM (inactive) | 6.76 µM (inactive) | 4.09 µM (inactive) | 2.2 µM (inactive) |
| CO[C@H]1[C@@H](O)[C@@H](O)O[C@@H](O[C@H]2CC[C@@]3(C)[C@H](CC[C@@H]4[C@@H]3[C@H](O)C[C@]3(C)[C@@H](C5=CC(=O)OC5)CC[C@]43O)C2)[C@@H]1O | 0.0471 µM (active) | 0.23 µM (active) | 0.441 µM (active) | 0.151 µM (active) | 0.178 µM (active) | 0.175 µM (active) | 0.193 µM (active) | 0.649 µM (active) | 0.243 µM (active) | 0.198 µM (active) | 0.69 µM (active) | 0.222 µM (active) | 0.601 µM (active) | 0.33 µM (active) | 0.136 µM (active) | 0.248 µM (active) | 0.064 µM (active) | 0.187 µM (active) | 0.382 µM (active) | 0.163 µM (active) |
| COC(=O)[C@@H]1C=C[C@H](OC2OC(COC(C)=O)C(OC(C)=O)C(OC(C)=O)C2OC(C)=O)n2c(=O)c3ccccc3c(=O)n21 (stereo not given in full) | 11.7 µM (inactive) | 4.14 µM (inactive) | 8.65 µM (inactive) | 16.5 µM (inactive) | 10.9 µM (inactive) | 5.66 µM (inactive) | 10.9 µM (inactive) | > 10 µM (inactive) | > 10 µM (inactive) | 16.9 µM (inactive) | 19.7 µM (inactive) | 19.8 µM (inactive) | 16 µM (inactive) | 16.5 µM (inactive) | 14.7 µM (inactive) | 14.6 µM (inactive) | > 10 µM (inactive) | 2.91 µM (inactive) | 17.2 µM (inactive) | 14.4 µM (inactive) |
| CCOP(=O)(OCC)C(C)(C)N(C)/C(F)=N/C(F)(F)F | > 100 µM (inactive) | > 100 µM (inactive) | > 100 µM (inactive) | > 100 µM (inactive) | > 100 µM (inactive) | > 100 µM (inactive) | > 100 µM (inactive) | > 100 µM (inactive) | > 100 µM (inactive) | > 100 µM (inactive) | > 100 µM (inactive) | > 100 µM (inactive) | > 100 µM (inactive) | > 100 µM (inactive) | > 100 µM (inactive) | > 100 µM (inactive) | > 100 µM (inactive) | > 100 µM (inactive) | > 100 µM (inactive) | > 100 µM (inactive) |
| c1ccc(Nc2nn3c(CCCCCCCCc4nnc5sc(Nc6ccccc6)nn45)nnc3s2)cc1 | 35.8 µM (inactive) | 20.4 µM (inactive) | 19.5 µM (inactive) | 23.3 µM (inactive) | 24.3 µM (inactive) | 15.3 µM (inactive) | 22.1 µM (inactive) | 28.7 µM (inactive) | 18.4 µM (inactive) | 37.1 µM (inactive) | 40.9 µM (inactive) | 26.6 µM (inactive) | 36.9 µM (inactive) | 22 µM (inactive) | 12.2 µM (inactive) | 32.1 µM (inactive) | 49.1 µM (inactive) | 28.1 µM (inactive) | 34.2 µM (inactive) | 22.1 µM (inactive) |

Source: ChEMBL document CHEMBL1201862, “PubChem BioAssay data set” (2004)
